Test results reported in PubChem BioAssay (NCI).
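GI50: concentration for 50% inhibition of growth. TGI: concentration producing complete growth inhibition.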

Columns and labels:
Experiment in all cases: NCI anticancer screen, dose series, 384-well format
A498 renal = system: A498 renal
A549 NSCLC = system: A549 NSCLC
ACHN renal = system: ACHN renal
BT-549 breast = system: BT-549 breast
CAKI-1 renal = system: CAKI-1 renal
COLO 205 colon = system: COLO 205 colon
DU-145 prostate = system: DU-145 prostate
EKVX NSCLC = system: EKVX NSCLC
HCC-2998 colon = system: HCC-2998 colon
HCT-116 colon = system: HCT-116 colon
HCT-15 colon = system: HCT-15 colon
HL-60(TB) leukemia = system: HL-60(TB) leukemia
HOP-62 NSCLC = system: HOP-62 NSCLC
HOP-92 NSCLC = system: HOP-92 NSCLC
HS 578T breast = system: HS 578T breast
HT29 colon = system: HT29 colon
IGROV1 ovarian = system: IGROV1 ovarian
KM12 colon = system: KM12 colon
LOX IMVI melanoma = system: LOX IMVI melanoma
M14 melanoma = system: M14 melanoma
MALME-3M melanoma = system: MALME-3M melanoma
MCF7 breast = system: MCF7 breast
MDA-MB-231 breast = system: MDA-MB-231 breast
MDA-MB-435 melanoma = system: MDA-MB-435 melanoma
MDA-MB-468 breast = system: MDA-MB-468 breast
MOLT-4 leukemia = system: MOLT-4 leukemia
NCI-H226 lung = system: NCI-H226 lung
NCI-H23 lung = system: NCI-H23 lung
NCI-H322M lung = system: NCI-H322M lung
NCI-H460 NSCLC = system: NCI-H460 NSCLC
NCI-H522 lung = system: NCI-H522 lung
NCI/ADR-RES ovarian = system: NCI/ADR-RES ovarian
OVCAR-3 ovarian = system: OVCAR-3 ovarian
OVCAR-4 ovarian = system: OVCAR-4 ovarian
OVCAR-5 ovarian = system: OVCAR-5 ovarian
OVCAR-8 ovarian = system: OVCAR-8 ovarian
PC-3 prostate = system: PC-3 prostate
RPMI-8226 leukemia = system: RPMI-8226 leukemia
RXF 393 renal = system: RXF 393 renal
SF-268 CNS = system: SF-268 CNS
SF-295 CNS = system: SF-295 CNS
SF-539 CNS = system: SF-539 CNS
SK-MEL-28 melanoma = system: SK-MEL-28 melanoma
SK-MEL-5 melanoma = system: SK-MEL-5 melanoma
SK-OV-3 ovarian = system: SK-OV-3 ovarian
SN12C renal = system: SN12C renal
SNB-19 CNS = system: SNB-19 CNS
SNB-75 CNS = system: SNB-75 CNS
SR leukemia = system: SR leukemia
T-47D breast = system: T-47D breast
TK-10 renal = system: TK-10 renal
U251 glioblastoma = system: U251 glioblastoma
UACC-257 melanoma = system: UACC-257 melanoma
UACC-62 melanoma = system: UACC-62 melanoma

In the case of `O=C(Oc1ccc([N+](=O)[O-])cc1)N1CCN(Cc2cccc(Oc3ccccc3)c2)CC1`, the GI50 (A498 renal) is reported as 42.1 µM, the TGI (A498 renal) is reported as > 100 µM and the GI50 (A549 NSCLC) is reported as > 100 µM. The TGI (A549 NSCLC) was > 100 µM, the GI50 (ACHN renal) was > 100 µM and the TGI (ACHN renal) was > 100 µM. The GI50 (BT-549 breast) was 67.1 µM, the TGI (BT-549 breast) was > 100 µM and the GI50 (CAKI-1 renal) was > 100 µM. For the same molecule, the TGI (CAKI-1 renal) was > 100 µM, the GI50 (COLO 205 colon) was > 100 µM and the TGI (COLO 205 colon) was > 100 µM. For the same molecule, the GI50 (DU-145 prostate) was > 100 µM, the TGI (DU-145 prostate) was > 100 µM and the GI50 (EKVX NSCLC) was 44.1 µM. The TGI (EKVX NSCLC) was > 100 µM, the GI50 (HCC-2998 colon) was 47.3 µM and the TGI (HCC-2998 colon) was > 100 µM. For the same molecule, the GI50 (HCT-116 colon) was 42.7 µM, the TGI (HCT-116 colon) was > 100 µM and the GI50 (HCT-15 colon) was 49.2 µM. The TGI (HCT-15 colon) was > 100 µM, the GI50 (HL-60(TB) leukemia) was 13.2 µM and the TGI (HL-60(TB) leukemia) was 34.2 µM. For the same molecule, the GI50 (HOP-62 NSCLC) was > 100 µM, the TGI (HOP-62 NSCLC) was > 100 µM and the GI50 (HOP-92 NSCLC) was > 100 µM. The TGI (HOP-92 NSCLC) was > 100 µM, the GI50 (HS 578T breast) was 92.3 µM and the TGI (HS 578T breast) was > 100 µM. For the same molecule, the GI50 (HT29 colon) was 51.6 µM, the TGI (HT29 colon) was > 100 µM and the GI50 (IGROV1 ovarian) was > 100 µM. The TGI (IGROV1 ovarian) was > 100 µM, the GI50 (KM12 colon) was 99.3 µM and the TGI (KM12 colon) was > 100 µM. The GI50 (LOX IMVI melanoma) was 53.9 µM, the TGI (LOX IMVI melanoma) was > 100 µM and the GI50 (M14 melanoma) was > 100 µM. For the same molecule, the TGI (M14 melanoma) was > 100 µM, the GI50 (MALME-3M melanoma) was > 100 µM and the TGI (MALME-3M melanoma) was > 100 µM. The GI50 (MCF7 breast) was 31 µM, the TGI (MCF7 breast) was > 100 µM and the GI50 (MDA-MB-231 breast) was > 100 µM. The TGI (MDA-MB-231 breast) was > 100 µM, the GI50 (MDA-MB-435 melanoma) was > 100 µM and the TGI (MDA-MB-435 melanoma) was > 100 µM. The GI50 (MDA-MB-468 breast) was 20.6 µM, the TGI (MDA-MB-468 breast) was > 100 µM and the GI50 (MOLT-4 leukemia) was 41.4 µM. For the same molecule, the TGI (MOLT-4 leukemia) was > 100 µM, the GI50 (NCI-H226 lung) was > 100 µM and the TGI (NCI-H226 lung) was > 100 µM. For the same molecule, the GI50 (NCI-H23 lung) was 53.8 µM, the TGI (NCI-H23 lung) was > 100 µM and the GI50 (NCI-H322M lung) was 46.2 µM. For the same molecule, the TGI (NCI-H322M lung) was > 100 µM, the GI50 (NCI-H460 NSCLC) was 21.6 µM and the TGI (NCI-H460 NSCLC) was 59.6 µM. For the same molecule, the GI50 (NCI-H522 lung) was 22.9 µM, the TGI (NCI-H522 lung) was > 100 µM and the GI50 (NCI/ADR-RES ovarian) was 27.5 µM. The TGI (NCI/ADR-RES ovarian) was > 100 µM, the GI50 (OVCAR-3 ovarian) was > 100 µM and the TGI (OVCAR-3 ovarian) was > 100 µM. The GI50 (OVCAR-4 ovarian) was 30.9 µM, the TGI (OVCAR-4 ovarian) was > 100 µM and the GI50 (OVCAR-5 ovarian) was > 100 µM. For the same molecule, the TGI (OVCAR-5 ovarian) was > 100 µM, the GI50 (OVCAR-8 ovarian) was > 100 µM and the TGI (OVCAR-8 ovarian) was > 100 µM. The GI50 (PC-3 prostate) was > 100 µM, the TGI (PC-3 prostate) was > 100 µM and the GI50 (RPMI-8226 leukemia) was 25.4 µM. For the same molecule, the TGI (RPMI-8226 leukemia) was > 100 µM, the GI50 (RXF 393 renal) was 48 µM and the TGI (RXF 393 renal) was > 100 µM. For the same molecule, the GI50 (SF-268 CNS) was > 100 µM, the TGI (SF-268 CNS) was > 100 µM and the GI50 (SF-295 CNS) was > 100 µM. The TGI (SF-295 CNS) was > 100 µM, the GI50 (SF-539 CNS) was > 100 µM and the TGI (SF-539 CNS) was > 100 µM. For the same molecule, the GI50 (SK-MEL-28 melanoma) was > 100 µM, the TGI (SK-MEL-28 melanoma) was > 100 µM and the GI50 (SK-MEL-5 melanoma) was 18 µM. For the same molecule, the TGI (SK-MEL-5 melanoma) was 55.2 µM, the GI50 (SK-OV-3 ovarian) was > 100 µM and the TGI (SK-OV-3 ovarian) was > 100 µM. For the same molecule, the GI50 (SN12C renal) was 33.8 µM, the TGI (SN12C renal) was > 100 µM and the GI50 (SNB-19 CNS) was > 100 µM. The TGI (SNB-19 CNS) was > 100 µM, the GI50 (SNB-75 CNS) was > 100 µM and the TGI (SNB-75 CNS) was > 100 µM. It also gave a GI50 (SR leukemia) of 16.7 µM, a TGI (SR leukemia) of 32.9 µM and a GI50 (T-47D breast) of 30.6 µM. For the same molecule, the TGI (T-47D breast) was > 100 µM, the GI50 (TK-10 renal) was 46.7 µM and the TGI (TK-10 renal) was > 100 µM. The GI50 (U251 glioblastoma) was > 100 µM, the TGI (U251 glioblastoma) was > 100 µM and the GI50 (UACC-257 melanoma) was 23.2 µM. For the same molecule, the TGI (UACC-257 melanoma) was > 100 µM, the GI50 (UACC-62 melanoma) was > 100 µM and the TGI (UACC-62 melanoma) was > 100 µM.
